Results from ChEMBL document CHEMBL4364342, “Structural and Molecular Insight into Resistance Mechanisms of First Generation cMET Inhibitors” (ACS Med Chem Lett, 2019).

Experiments:
[1] = biological target: T1, Hepatocyte growth factor receptor (Homo sapiens, UniProt P08581); experiment: Inhibition of wild type N-terminal NH-tagged and avi-tagged dephosphorylated c-MET (956 to 1390 residues) (unknown origin) expressed in sf21 cells using poly (Glu,Tyr) as substrate measured after 60 mins by ADP-Glo kinase assay
[2] = biological target: T1, Hepatocyte growth factor receptor; experiment: Inhibition of c-Met phosphorylation at Tyr 1234/Tyr1235 residues in human NCI-H1993 cells incubated for 4 hrs by HTRF assay; format: cell-based
[3] = biological target: T2, Hepatocyte growth factor receptor (Homo sapiens, UniProt P08581, D1228V); experiment: Inhibition of N-terminal NH-tagged and avi-tagged dephosphorylated c-MET D1228V mutant (956 to 1390 residues) (unknown origin) expressed in sf21 cells using poly (Glu,Tyr) as substrate measured after 60 mins by ADP-Glo kinase assay
[4] = biological target: T2, Hepatocyte growth factor receptor; experiment: Inhibition of c-MET D1228V mutant phosphorylation at Tyr1234/Tyr1235 residues in CRISPR/Cas9 modified human NCI-H1993 cells incubated for 4 hrs by HTRF assay; format: cell-based
NCI-H1993 [5] = experiment: Growth inhibition of wild type human NCI-H1993 cells incubated for 3 days by cell titer-glo luminescent cell viability assay; format: functional; conditions: NCI-H1993, 72 h
NCI-H1993 [6] = experiment: Growth inhibition of CRISPR/Cas9 modified human NCI-H1993 cells harboring cMET D1228V mutant incubated for 3 days by cell titer-glo luminescent cell viability assay; format: functional; conditions: NCI-H1993, 72 h
NCI-H1993 [7] = experiment: Resistance index, ratio of GI50 for CRISPR/Cas9 modified human NCI-H1993 cells harboring cMET D1228V mutant to GI50 for wild type human NCI-H1993 cells by cell-titer glo luminescent cell viability assay; format: functional

IC50 [1] [nM]	IC50 [2] [nM]	IC50 [3] [nM]	IC50 [4] [nM]	GI50 (NCI-H1993 [5]) [nM]	GI50 (NCI-H1993 [6]) [µM]	SMILES	RatioGI50 (NCI-H1993 [7])
< 2.51	12.3 to 214	< 2.51	12.3 to 214			CCOc1ccn(-c2ccc(F)cc2)c(=O)c1C(=O)Nc1ccc(Oc2ccnc(N)c2Cl)c(F)c1 [BMS-777607]	
				61.7	0.0525	COc1cc2c(Oc3ccc(NC(=O)C4(C(=O)Nc5ccc(F)cc5)CC4)cc3F)ccnc2cc1OCCCN1CCOCC1 [FORETINIB]	
< 2.51	2	676	> 31600	9.33	8.32	C[C@@H](c1ccc2nccn2c1)n1nnc2ncc(-c3cnn(C)c3)nc21 [SAVOLITINIB]	> 800
